Activity calls are given as the source filed them. The rule behind the calls is not given here.
Columns and labels:
HEK293 [1] = test: Fold increase expressed as pmol of cAMP accumulation by the compound/basal level of cAMP produced at 25 uM in multiplex cell based assay; 5.1/4.4; type: functional, Homo sapiens
HEK293 [2] = test: Fold increase expressed as pmol of cAMP accumulation by the compound/basal level of cAMP produced by CGRP1-7HEK cells at 25 uM; No activity; type: functional, cell-based; conditions: Homo sapiens
HEK293 [3] = test: Fold increase expressed as pmol of cAMP accumulation by the compound/basal level of cAMP produced by CTR-2HEK cells at 25 uM; type: functional, Homo sapiens
HEK293 [4] = test: Fold increase expressed as pmol of cAMP accumulation by the compound/basal level of cAMP produced by EPTH1-1HEK cells at 25 uM; No activity; type: functional, cell-based; conditions: Homo sapiens
HEK293 [5] = test: Fold increase expressed as pmol of cAMP accumulation by the compound/basal level of cAMP produced by GIP-1HEK cells at 25 uM; No activity; type: functional, cell-based; conditions: Homo sapiens
HEK293 [6] = test: Fold increase expressed as pmol of cAMP accumulation by the compound/basal level of cAMP produced by GLP1-7HEK cells at 25 uM; No activity; type: functional, cell-based; conditions: Homo sapiens
HEK293 [7] = test: Fold increase expressed as pmol of cAMP accumulation by the compound/basal level of cAMP produced by GLU-1HEK cells at 25 uM; No activity; type: functional, cell-based; conditions: Homo sapiens
HEK293 [8] = test: Fold induction of cAMP accumulation in HEK 293 cells at 75u M.; type: functional, Homo sapiens
HEK293 [9] = test: In vitro cAMP accumulation in HEK 293 cells.; type: functional, cell-based; conditions: Homo sapiens
[10] = Bioavailability in rat after intravenous administration at 1 mpk; type: ADME, organism-based; conditions: in vivo, read-out: Bioavailabiility
[11] = Bioavailability in rat after peroral administration at 30 mpk; type: ADME, organism-based; conditions: in vivo, po, 30 mg/kg, read-out: Bioavailabiility
monkey [12] = test: Bioavailability in monkey after peroral administration at 10 mpk; conditions: in vivo, po, 10 mg/kg, read-out: Bioavailabiility
monkey [13] = test: Bioavailability in monkey after intravenous administration at 1 mpk; conditions: in vivo, read-out: Bioavailabiility
HEK293 [14] = test: Fold increase expressed as pmol of cAMP accumulation by the compound/basal level of cAMP produced at 25 uM in multiplex cell based assay; 4.7/4.0; type: functional, Homo sapiens
Rattus norvegicus = test: Bioavailability in rat after peroral administration at 100 mpk; type: functional, organism-based
[15] = Bioavailability in rat after intravenous administration at 2 mpk; type: ADME, organism-based; conditions: in vivo, read-out: Bioavailabiility
HEK293 [16] = test: Fold increase expressed as pmol of cAMP accumulation by the compound/basal level of cAMP produced at 25 uM in multiplex cell based assay; 4.5/5.7; type: functional, Homo sapiens
HEK293 [17] = test: Fold increase expressed as pmol of cAMP accumulation by the compound/basal level of cAMP produced at 25 uM in multiplex cell based assay; 4.7/3.2; type: functional, Homo sapiens

Compound | Fold-induction (HEK293 [8]) | EC50 (HEK293 [9]) [µM] | further results
CC1=C(C(=O)OCC(F)(F)C(F)(F)F)C(c2ccccc2)NC(=O)N1 (centres undefined) | – | – | Fold-induction (HEK293 [1]): 5.1; Fold-induction (HEK293 [2]): inactive; Fold-induction (HEK293 [3]): 9; Fold-induction (HEK293 [4]): inactive; Fold-induction (HEK293 [5]): inactive; Fold-induction (HEK293 [6]): inactive; Fold-induction (HEK293 [7]): inactive
CCCC1=C(C(=O)OCc2ccc(C(=O)NCCCN(C)C)cc2)C(c2cccc(C)c2)NC(=O)N1 (centres undefined) | 55 | 1.4 | –
CCCC1=C(C(=O)OCc2ccc(C(=O)N(C)C)cc2)C(c2cccc(C)c2)NC(=O)N1 (centres undefined) | 40 | 3.4 | –
CCCC1=C(C(=O)OCc2ccc(C(=O)NCCN3CCCCC3)cc2)C(c2cccc(C)c2)NC(=O)N1 (centres undefined) | 51 | 1.3 | bioavailability [10]: 65%; bioavailability [11]: 65%; bioavailability (monkey [12]): 13%; bioavailability (monkey [13]): 13%
CCCC1=C(C(=O)OCc2ccc(C(=O)NCCN3CCOCC3)cc2)C(c2cccc(C)c2)NC(=O)N1 (centres undefined) | 50 | 4.3 | –
CCCC1=C(C(=O)OCC)C(c2cccc(Cl)c2)NC(=O)N1 (centres undefined) | 21 | 6.8 | –
CCC1=C([N+](=O)[O-])C(c2ccc3c(c2)OCO3)NC(=O)N1 (centres undefined) | – | – | Fold-induction (HEK293 [14]): 4.7; Fold-induction (HEK293 [2]): inactive; Fold-induction (HEK293 [3]): 12; Fold-induction (HEK293 [4]): inactive; Fold-induction (HEK293 [5]): inactive; Fold-induction (HEK293 [6]): inactive; Fold-induction (HEK293 [7]): inactive
COc1ccc(COC(=O)C2=C(C(C)C)NC(=O)NC2c2cccc(C)c2)cc1 (centres undefined) | 33 | 5.8 | –
CCCC1=C(C(=O)OCC)C(c2cc(C)cc(C)c2)NC(=O)N1 (centres undefined) | 34 | 9.5 | –
CCCC1=C(C(=O)OCc2ccc(C(=O)OC)cc2)C(c2cccc(C)c2)NC(=O)N1 (centres undefined) | 42 | 1 | –
CC1=C(C(=O)OCc2ccccc2)C(c2ccccc2)NC(=O)N1 (centres undefined) | 17 | > 20 | –
CC(C)C[C@H](NC(=O)[C@H](CCCCN)NC(=O)CNC(=O)[C@H](CC(C)C)NC(=O)[C@@H](NC(=O)[C@@H]1CSSC[C@H](N)C(=O)N[C@@H](CO)C(=O)N[C@@H](CC(N)=O)C(=O)N[C@@H](CC(C)C)C(=O)N[C@@H](CO)C(=O)N[C@@H]([C@@H](C)O)C(=O)N1)C(C)C)C(=O)N[C@@H](CO)C(=O)N[C@@H](CCC(N)=O)C(=O)N[C@@H](CCC(=O)O)C(=O)N[C@@H](CC(C)C)C(=O)N[C@@H](Cc1c[nH]cn1)C(=O)N[C@@H](CCCCN)C(=O)N[C@@H](CC(C)C)C(=O)N[C@@H](CCC(N)=O)C(=O)N[C@H](C(=O)N[C@@H](Cc1ccc(O)cc1)C(=O)N1CCC[C@H]1C(=O)N[C@@H](CCCNC(=N)N)C(=O)N[C@H](C(=O)N[C@@H](CC(N)=O)C(=O)N[C@H](C(=O)NCC(=O)N[C@@H](CO)C(=O)NCC(=O)N[C@H](C(=O)N1CCC[C@H]1C(N)=O)[C@@H](C)O)[C@@H](C)O)[C@@H](C)O)[C@@H](C)O [CALCITONIN SALMON] | 40 | 0.003 | –
CCCC1=C(C(=O)OCC)C(c2cccc(C)c2)NC(=O)N1 (centres undefined) | 35 | 7.5 | bioavailability (Rattus norvegicus): 2%; bioavailability [15]: 2%
CC1=C(C(=O)OC2CCCC2C)C(c2ccccc2)NC(=O)N1 (centres undefined) | – | – | Fold-induction (HEK293 [16]): 4.5; Fold-induction (HEK293 [2]): inactive; Fold-induction (HEK293 [3]): 8; Fold-induction (HEK293 [4]): inactive; Fold-induction (HEK293 [5]): inactive; Fold-induction (HEK293 [6]): inactive; Fold-induction (HEK293 [7]): inactive
CCCC1=C(C(=O)OCc2ccccc2)C(c2cccc(C)c2)NC(=O)N1 (centres undefined) | 36 | 5.2 | –
CCCCCC1=C(C(=O)OCC)C(c2cccc(C)c2)NC(=O)N1 (centres undefined) | 31 | – | –
CCCC1=C(C(=O)OCc2ccc(C(=O)O)cc2)C(c2cccc(C)c2)NC(=O)N1 (centres undefined) | 61 | 3.4 | –
CCCC1=C(C(=O)OCc2ccc(C(=O)NCCCN3CCN(C)CC3)cc2)C(c2cccc(C)c2)NC(=O)N1 (centres undefined) | 55 | 4.3 | –
C=CCOC(=O)C1=C(C)NC(=O)NC1c1ccc2c(c1)OCO2 (centres undefined) | – | – | Fold-induction (HEK293 [17]): 4.7; Fold-induction (HEK293 [2]): inactive; Fold-induction (HEK293 [3]): 8; Fold-induction (HEK293 [4]): inactive; Fold-induction (HEK293 [5]): inactive; Fold-induction (HEK293 [6]): inactive; Fold-induction (HEK293 [7]): inactive
CCCC1=C(C(=O)OCc2ccc(C(=O)N(C)CCN3CCCCC3)cc2)C(c2cccc(C)c2)NC(=O)N1 (centres undefined) | 55 | 4.4 | –
CCCC1=C(C(=O)OCc2ccc(C(=O)NCCCN3CCCCC3)cc2)C(c2cccc(C)c2)NC(=O)N1 (centres undefined) | 52 | 1.9 | –
CC1=C(C(=O)OCc2ccccc2)C(c2cccc(C)c2)NC(=O)N1 (centres undefined) | 23 | 15 | –

Reference: ChEMBL document CHEMBL1147586, “Discovery of a dihydropyrimidine series of molecules that selectively mimic the biological actions of calcitonin” (Bioorg Med Chem Lett, 2004)
